Measured values: patent US4156011A, “Sulphur- and oxygen-containing diaryl compounds” (priority 1974, dated 1979)
Where a name gives a salt, the structure may show the parent alone. Read-outs that look alike come from different tables or passages of the source.

Columns and labels:
[1] = Solubility of the isolated product; details: for solubility in water (in words) / solubility: water
[2] = Reduction of lipids and cholesterol in rats treated orally; type: in vivo; details: for inhibition in vivo at 20 mg/kg / inhibition in vivo at 100 mg/kg: Rattus norvegicus, 96 h; for inhibition in vivo at 20 mg/kg: oral 20 mg/kg
[3] = normal diet, oral 50 mg/kg daily, 3 and 5 days

CC(Oc1ccc(S(=O)(=O)c2ccc(Cl)cc2)cc1)C(=O)OCCNCCSCCCCCCCCCCSCCNCCOC(=O)C(C)Oc1ccc(S(=O)(=O)c2ccc(Cl)cc2)cc1 (racemic) [CRL 40249, 6,17-Dithia-3,20-diaza-1,22-docosanediol di-(±)-2-[p-(p-chlorophenylsulphonyl)-phenoxy]-propionate]
solubility in alcohol (in words) [1]: insoluble in water and in alcohol | solubility in water (in words) [1]: insoluble in water

CC(Sc1ccc(Sc2ccc(Cl)cc2)cc1)C(=O)OCCSCCCCCCCCCCSCCOC(=O)C(C)Sc1ccc(Sc2ccc(Cl)cc2)cc1 (racemic) [CRL 40,398, 3,14-Dithia-1,16-hexadecyl di-(±)-{2-[p-(p-chlorophenylthio)-phenylthio]-propionate}]
change in the cholesterol content (in words) ([2]; oral 100 mg/kg, 4 days): no change in the cholesterol content | reduction in the (total) lipids ([2]; oral 100 mg/kg, 4 days): 17%

CC(C)(CNCCO)Oc1ccc(Oc2ccc(Cl)cc2)cc1 [CRL 40 311, N-Ethanol-2-[4-(4-chlorophenoxy)-phenoxy]-2-methyl-1-propylamine hydrochloride]
solubility in water (in words) [1]: soluble in water

CC(Oc1ccc(Sc2ccc(Cl)cc2)cc1)C(=O)O (racemic) [CRL 40,246, (±)-2-[4-Chlorophenylthio)-phenoxy]-propionic acid]
solubility in alcohol (in words) [1]: soluble in alcohol | solubility in water (in words) [1]: insoluble in water

CC(C)(Oc1ccc(Oc2ccc(Cl)cc2)cc1)C(=O)NCCO [CRL 40 309, N-Hydroxyethyl-2-[4-(4-chlorophenoxy)-phenoxy]-2-methylpropionamide]
solubility in water (in words) [1]: insoluble in water

CC(C)(Oc1ccc([S+]([O-])c2ccc(Cl)cc2)cc1)C(=O)OCCNCCSCCCCCCCCCCSCCNCCOC(=O)C(C)(C)Oc1ccc([S+]([O-])c2ccc(Cl)cc2)cc1 (centres unmarked) [CRL 40 242, 6,17-Dithia-3,20-diaza-1,22-docosanediol di-[4-(4-chlorosulphinyl)-phenoxy-isobutyrate]]
solubility in alcohol (in words) [1]: soluble in alcohol | solubility in water (in words) [1]: insoluble in water

Cl.NC(COc1ccc(Oc2ccc(Cl)cc2)cc1)=NO [CRL 40 337, 4-(4-Chlorophenoxy)-phenoxy-acetamidoxime hydrochloride]
solubility in water (in words) [1]: partially soluble in water

CC(Oc1ccccc1Sc1ccc(Cl)cc1)C(=O)OCCNCCSCCCCCCCCCCSCCNCCOC(=O)C(C)Oc1ccccc1Sc1ccc(Cl)cc1 (racemic) [CRL 40 247, 6,17-Dithia-3,20-diaza-1,22-docosanediol di-(±)-[2-(4-chlorophenylthio)phenoxy-propionate]]
solubility in alcohol (in words) [1]: soluble in alcohol | solubility in water (in words) [1]: insoluble in water

CC(Oc1ccc(Sc2ccc(Cl)cc2)cc1)C(=O)OCCSCCCCCCCCCCSCCOC(=O)C(C)Oc1ccc(Sc2ccc(Cl)cc2)cc1 (racemic) [CRL 40,390, 3,14-Dithia-1,16-hexadecyl di-(±)-{2-[p-(p-chlorophenylthio)-phenoxy]-propionate}]
inhibition in vivo at 20 mg/kg ([2]; 4 days, read-out: reduction in the cholesterol): 25% | inhibition in vivo at 20 mg/kg ([2]; 4 days, read-out: reduction in the lipids): 25%

CC(Sc1ccc(Oc2ccc(Cl)cc2)cc1)C(=O)O (racemic) [CRL 40,281, (±)-2-[4-(4-chlorophenoxy)-phenylthio]-propionic acid]
solubility in water (in words) [1]: insoluble in water

CC(CNC(C)(C)CO)Oc1ccc(Oc2ccc(Cl)cc2)cc1.Cl (racemic) [CRL 40 302, (±)-N-(β-Hydroxy-α,α-dimethylethyl)-2-[4-(4-chlorophenoxy)-phenoxy]-1-propylamine hydrochloride]
solubility [1]: 200 mg/mL

CC(COC(=O)C(C)(C)Sc1ccc(Sc2ccc(Cl)cc2)cc1)SCCCCCCCCCCSC(C)COC(=O)C(C)(C)Sc1ccc(Sc2ccc(Cl)cc2)cc1 (racemic) [CRL 40,403, (±)-2,15-Dimethyl-3,14-dithia-1,16-hexadecyl di-{2-[p-(p-chlorophenylthio)-phenylthio]-2-methylpropionate}]
inhibition in vivo at 100 mg/kg ([2]; oral 100 mg/kg, 4 days): 32% | reduction in the (total) lipids ([2]; oral 100 mg/kg, 4 days): 10%

CC(C)(Oc1ccc(Sc2ccc(Cl)cc2)cc1)C(=O)N(CCO)CCSCCCCCCCCCCSCCN(CCO)C(=O)C(C)(C)Oc1ccc(Sc2ccc(Cl)cc2)cc1 [CRL 40 254, 3,20-di[p-(p-chlorophenylthio)phenoxy-isobutyryl]-6,17-dithia-3,20-diaza-1,22-docosanediol]
solubility in water (in words) [1]: insoluble in water

CC(C)(Oc1ccc(S(=O)(=O)c2ccc(Cl)cc2)cc1)C(=O)OCCNCCSCCCCCCCCCCSCCNCCOC(=O)C(C)(C)Oc1ccc(S(=O)(=O)c2ccc(Cl)cc2)cc1 [CRL 40241, 6,17-Dithia-3,20-diaza-1,22-docosanediol di-p-(p-chlorophenylsulphonyl)-phenoxy-isobutyrate]
solubility in hot alcohol (in words) ([1]; hot alcohol): soluble in hot alcohol | solubility in water (in words) [1]: insoluble in water

p-(p-Chlorophenylthio)-phenylthioacetic acid [CRL 40,386]
reduction in the concentration of cholesterol in the plasma [2, 3]: about 20% | reduction in the concentration of lipids in the plasma [2, 3]: about 20% | reduction in the (total) lipids ([2]; oral 100 mg/kg, 4 days): 42% | reduction in the cholesterol ([2]; oral 100 mg/kg, 4 days): 26%

CC(COC(=O)CSc1ccc(Sc2ccc(Cl)cc2)cc1)SCCCCCCCCCCSC(C)COC(=O)CSc1ccc(Sc2ccc(Cl)cc2)cc1 (racemic) [CRL 40,395, (±)-2,15-Dimethyl-3,14-dithia-1,16-hexadecyl di-[p-(p-chlorophenylthio)-phenylthio-acetate]]
inhibition in vivo at 100 mg/kg ([2]; oral 100 mg/kg, 4 days): 27% | reduction in the (total) lipids ([2]; oral 100 mg/kg, 4 days): 18%

CC(COS(C)(=O)=O)Oc1ccc(Oc2ccc(Cl)cc2)cc1 (racemic) [Example 34, (±)-2-[4-(4-Chlorophenoxy)-phenoxyl]-propyl mesylate]
solubility in water (in words) [1]: insoluble in water

CC(Oc1ccc(Oc2ccc(Cl)cc2)cc1)C(=O)O (racemic) [CRL 40,299, (±)-2-[4-(4-Chlorophenoxy)-phenoxy]-propionic acid]
solubility in water (in words) [1]: insoluble in water

CC(C)(Oc1ccc(Sc2ccc(Cl)cc2)cc1)C(=O)OCCNCCSCCCCCCCCCCSCCNCCOC(=O)C(C)(C)Oc1ccc(Sc2ccc(Cl)cc2)cc1 [CRL 40 240, 6,17-Dithia-3,20-diaza-1,22-docosanediol di-p-(p-chlorophenylthio)-phenoxy-isobutyrate]
solubility in alcohol (in words) [1]: soluble in alcohol | solubility in water (in words) [1]: insoluble in water

O=C(CSc1ccc(Oc2ccc(Cl)cc2)cc1)OCCSCCCCCCCCCCSCCOC(=O)CSc1ccc(Oc2ccc(Cl)cc2)cc1 [CRL 40,284, 3,14-Dithia-1,16-hexadecyl di-[p-(p-chlorophenoxy)-phenylthio-acetate]]
solubility in water (in words) [1]: water-insoluble

CC(C)(CNCCO)Sc1ccc(Oc2ccc(Cl)cc2)cc1 [CRL 40,279, N-Hydroxyethyl-4-(4-chlorophenoxy)phenylthio-isobutylamine]
solubility in water (in words) [1]: insoluble in water

CC(C)(Oc1ccc(Oc2ccc(Cl)cc2)cc1)C(=O)O [CRL 40,308, 4-(4-Chlorophenoxy)-phenoxy-isobutyric acid]
solubility in water (in words) [1]: insoluble in water

CC(C)(Oc1ccc(S(=O)(=O)c2ccc(Cl)cc2)cc1)C(=O)O [CRL 40,239, 4-(4-chlorophenylsulphonyl)-phenoxy-isobutyric acid]
solubility in alcohol (in words) [1]: soluble in alcohol | solubility in water (in words) [1]: insoluble in water

CC(C)(Sc1ccc(Oc2ccc(Cl)cc2)cc1)C(=O)O [CRL 40,275, 4-(4-chlorophenoxy)-phenylthio-isobutyric acid]
solubility in water (in words) [1]: insoluble in water

Cl.N=C(N)COc1ccc(Oc2ccc(Cl)cc2)cc1 [CRL 40 338, 4-(4-Chlorophenoxy)-phenoxy-acetamidine hydrochloride]
solubility in water (in words) [1]: soluble in water

CC(Sc1ccc(Sc2ccc(Cl)cc2)cc1)C(=O)O (racemic) [CRL 40,351, (±)-2-[p-(p-Chlorophenylthio)-phenylthio]-propionic acid]
solubility in water (in words) [1]: water-insoluble

CC(CNCCO)Oc1ccc(Oc2ccc(Cl)cc2)cc1.Cl (racemic) [CRL 40 301, (±)-N-Hydroxyethyl-2-[4-(4-chlorophenoxy)-phenoxy]-1-propylamine hydrochloride]
solubility [1]: 200 mg/mL

CC(COC(=O)C(C)Sc1ccc(Oc2ccc(Cl)cc2)cc1)SCCCCCCCCCCSC(C)COC(=O)C(C)Sc1ccc(Oc2ccc(Cl)cc2)cc1 (racemic) [CRL 40,409, (±)-2,15-Dimethyl-3,14-dithia-1,16-hexadecyl di-(±)-{2-[p-(p-chlorophenoxy)-phenylthio]-propionate}]
reduction in the (total) lipids ([2]; oral 100 mg/kg, 4 days): 9-10%

CC(Sc1ccc(Oc2ccc(Cl)cc2)cc1)C(=O)OCCSCCCCCCCCCCSCCOC(=O)C(C)Sc1ccc(Oc2ccc(Cl)cc2)cc1 (racemic) [CRL 40,408, 3,14-Dithia-1,16-hexadecyl di-(±)-{2-[p-(p-chlorophenoxy)-phenylthio]-propionate}]
inhibition in vivo at 100 mg/kg ([2]; oral 100 mg/kg, 4 days): 20% | reduction in the (total) lipids ([2]; oral 100 mg/kg, 4 days): 17%
